Data set [1] has as its target T1, human aminopeptidase N (APN) (Homo sapiens, UniProt P15144).
T1 construct: expressed in transfected cells; host or cells: HEK293 / HEK293T cells, membrane preparations
The experiment in a line: Inhibition of human aminopeptidase N overexpressed in HEK293 cells. Type of data set: biochemical. Conditions: for APN IC50 (µM)/pIC50: human aminopeptidase N overexpressed in HEK293 cells. The method, then: (§1) Human IRAP and APN were overexpressed, as previously described.
(§2) Membrane preparations from frozen CHO cells and HEK293T cells with overexpressed IRAP and APN were prepared and handled as previously described.
(§3) Details for the assay used to evaluate the inhibitory activity of the compounds have already been published.

The next data set has as its target T2, human IRAP (Homo sapiens, UniProt Q9UIQ6).
T2 construct: expressed in transfected cells
Description: Inhibition of human membrane-bound IRAP overexpressed in HEK293 cells (hIRAP). Type of data set: biochemical. The method, then:
as §1, §2, §3

For data set [2], the target named is T3, IRAP (Cricetulus griseus, UniProt A0A8C2M8D5).
T3 sequence (A0A8C2M8D5 1-1025): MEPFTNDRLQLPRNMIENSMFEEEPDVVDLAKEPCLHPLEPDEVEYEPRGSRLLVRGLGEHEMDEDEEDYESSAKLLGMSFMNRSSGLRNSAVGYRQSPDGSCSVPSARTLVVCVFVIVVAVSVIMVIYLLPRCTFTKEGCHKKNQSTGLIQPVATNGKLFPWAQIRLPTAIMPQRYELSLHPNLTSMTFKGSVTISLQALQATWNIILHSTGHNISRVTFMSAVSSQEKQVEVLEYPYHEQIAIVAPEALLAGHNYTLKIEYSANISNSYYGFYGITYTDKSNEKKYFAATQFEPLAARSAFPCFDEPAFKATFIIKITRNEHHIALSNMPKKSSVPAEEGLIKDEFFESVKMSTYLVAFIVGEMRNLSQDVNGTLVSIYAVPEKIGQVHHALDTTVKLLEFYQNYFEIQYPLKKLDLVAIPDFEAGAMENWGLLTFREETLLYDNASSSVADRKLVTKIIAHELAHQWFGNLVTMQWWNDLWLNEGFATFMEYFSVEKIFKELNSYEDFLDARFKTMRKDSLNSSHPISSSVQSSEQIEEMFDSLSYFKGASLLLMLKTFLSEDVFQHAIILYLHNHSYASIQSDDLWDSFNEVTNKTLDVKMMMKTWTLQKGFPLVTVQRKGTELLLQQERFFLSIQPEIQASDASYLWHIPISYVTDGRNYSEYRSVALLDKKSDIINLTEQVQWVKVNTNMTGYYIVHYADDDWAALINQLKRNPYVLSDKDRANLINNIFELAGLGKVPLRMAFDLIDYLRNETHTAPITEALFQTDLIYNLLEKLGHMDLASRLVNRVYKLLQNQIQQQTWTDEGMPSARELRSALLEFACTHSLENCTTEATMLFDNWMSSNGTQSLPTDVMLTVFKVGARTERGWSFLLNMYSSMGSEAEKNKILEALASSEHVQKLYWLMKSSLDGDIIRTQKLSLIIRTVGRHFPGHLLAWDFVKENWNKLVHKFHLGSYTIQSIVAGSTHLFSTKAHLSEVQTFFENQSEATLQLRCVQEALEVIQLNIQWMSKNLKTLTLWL
Description: Mechanism of action enzyme kinetics with variable L-Leu-pNA substrate on IRAP from CHO cell membranes. Conditions: Vmax decreases, Km constant. Type of data set: biochemical, Chinese hamster. On the procedure:
The design of the enzyme kinetics experiments followed that of the inhibitory experiments, except for the substrate concentrations that were variable at 0.1, 0.2, 0.3, 0.4, 0.8, 1.6 and 2.4 mM. The serial dilution of the compound stock solution was reproduced across all eight rows of a set of four 96-well plates. Four technical replicates were obtained at each substrate concentration by adding the same substrate solution to the top or bottom four rows of each 96-well plate, i.e., a total of four plates were used for this experiment, including a no-substrate control. The absorbance of these plates was then measured every 10 min to follow the enzymatic reaction over time. Data obtained in the presence of 100 µM inhibitor were used to define maximal IRAP inhibition under these assay conditions, i.e., this slope was subtracted from those obtained at lower inhibitor concentrations. Data were fitted to a model for non-competitive inhibition within GraphPad and compared with models for competitive and uncompetitive binding. The non-competitive inhibition model explains the experimental data with a probability of 99.99%, compared to 0.01% and <0.01% for competitive and uncompetitive inhibition, respectively. […]

Data set [3] relates to IRAP. Also on record: method as in PMID 27078680. Conditions: jump-dilution experiments; cited from earlier work.
Data set [4] has as its target T4, human recombinant soluble IRAP (sIRAP) (Homo sapiens, UniProt Q9UIQ6).
T4 construct: as well as the recombinant soluble enzyme (sIRAP)
Description: Inhibition of human recombinant soluble IRAP (sIRAP). Type of data set: biochemical. Conditions: human recombinant soluble enzyme.
Source text: as §3

A short description of data set [5]: Human liver microsome intrinsic clearance. Type of data set: in vitro ADME. Conditions: human liver microsomes; for microsomal CLint: read-out: HLM Clint; for half-life: read-out: HLM t ½. On the procedure:
(§4) Pre-clinical profiling of the compounds was performed at AstraZeneca R&D in Gothenburg, Sweden, applying an integrated panel of assays referred to as the DMPK Wave 1 panel.
On the technique in general: Microsomes from liver hold many membrane-bound enzymes, among them those of drug oxidation.

Data set [6] in a line: Dried DMSO solubility in aqueous phosphate buffer pH 7.4. Conditions: thermodynamic from solid; aqueous phosphate buffer (PBS) at pH 7.4; read-out: Sol. (dried DMSO solubility). Type of data set: physicochemical. On the procedure: as §4
Another data set can be described thus: Human plasma stability. Type of data set: in vitro ADME. Conditions: after 18 h incubation. On the procedure: as §4
Data set [7] can be described thus: Rat hepatocytes intrinsic clearance. Type of data set: in vitro ADME. The settings on record: for hepatocyte CLint: read-out: Rat hep. Clint; for half-life: read-out: Rat hep. t ½. On the procedure: as §4
The nature of data set [8]: LogD7.4 (DMPK Wave 1 panel). Type of data set: physicochemical. Conditions: pH 7.4; average ± SD of three test occasions. On the procedure: as §4
Data set [9] in a line: Human plasma protein binding. Type of data set: in vitro ADME. The settings on record: read-out: PPB. On the procedure:
as §4

In brackets after ≈: the same amount, converted by molar mass. Entries after “also recorded” stand apart in the source; their conditions may differ. Where only a bound is given, the exact number is not on record here.

T1 sequence (P15144 whole entry): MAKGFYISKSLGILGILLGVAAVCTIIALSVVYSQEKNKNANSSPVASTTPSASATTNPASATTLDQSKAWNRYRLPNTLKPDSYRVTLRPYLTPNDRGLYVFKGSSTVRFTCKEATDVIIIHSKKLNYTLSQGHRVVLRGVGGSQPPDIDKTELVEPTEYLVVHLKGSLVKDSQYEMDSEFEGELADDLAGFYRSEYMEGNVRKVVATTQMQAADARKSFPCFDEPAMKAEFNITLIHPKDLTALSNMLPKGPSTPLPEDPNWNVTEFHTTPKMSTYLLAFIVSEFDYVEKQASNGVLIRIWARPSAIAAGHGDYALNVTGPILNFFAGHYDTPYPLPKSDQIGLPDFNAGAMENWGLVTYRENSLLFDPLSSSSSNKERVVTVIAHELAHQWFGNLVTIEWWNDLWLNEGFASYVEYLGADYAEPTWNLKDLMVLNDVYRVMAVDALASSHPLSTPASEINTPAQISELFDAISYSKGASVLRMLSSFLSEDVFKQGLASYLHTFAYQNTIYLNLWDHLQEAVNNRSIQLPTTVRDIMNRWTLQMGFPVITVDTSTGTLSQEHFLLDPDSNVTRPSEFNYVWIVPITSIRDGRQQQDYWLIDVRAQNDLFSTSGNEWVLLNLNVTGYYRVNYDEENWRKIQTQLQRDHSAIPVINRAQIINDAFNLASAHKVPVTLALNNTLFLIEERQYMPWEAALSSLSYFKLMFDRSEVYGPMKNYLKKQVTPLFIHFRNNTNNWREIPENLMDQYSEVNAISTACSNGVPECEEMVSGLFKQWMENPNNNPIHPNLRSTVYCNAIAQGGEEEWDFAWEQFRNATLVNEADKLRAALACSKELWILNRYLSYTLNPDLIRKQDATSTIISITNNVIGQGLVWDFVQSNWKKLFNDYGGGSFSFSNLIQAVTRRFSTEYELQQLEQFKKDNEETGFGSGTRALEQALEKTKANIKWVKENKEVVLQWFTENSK
T2 sequence (Q9UIQ6 whole entry): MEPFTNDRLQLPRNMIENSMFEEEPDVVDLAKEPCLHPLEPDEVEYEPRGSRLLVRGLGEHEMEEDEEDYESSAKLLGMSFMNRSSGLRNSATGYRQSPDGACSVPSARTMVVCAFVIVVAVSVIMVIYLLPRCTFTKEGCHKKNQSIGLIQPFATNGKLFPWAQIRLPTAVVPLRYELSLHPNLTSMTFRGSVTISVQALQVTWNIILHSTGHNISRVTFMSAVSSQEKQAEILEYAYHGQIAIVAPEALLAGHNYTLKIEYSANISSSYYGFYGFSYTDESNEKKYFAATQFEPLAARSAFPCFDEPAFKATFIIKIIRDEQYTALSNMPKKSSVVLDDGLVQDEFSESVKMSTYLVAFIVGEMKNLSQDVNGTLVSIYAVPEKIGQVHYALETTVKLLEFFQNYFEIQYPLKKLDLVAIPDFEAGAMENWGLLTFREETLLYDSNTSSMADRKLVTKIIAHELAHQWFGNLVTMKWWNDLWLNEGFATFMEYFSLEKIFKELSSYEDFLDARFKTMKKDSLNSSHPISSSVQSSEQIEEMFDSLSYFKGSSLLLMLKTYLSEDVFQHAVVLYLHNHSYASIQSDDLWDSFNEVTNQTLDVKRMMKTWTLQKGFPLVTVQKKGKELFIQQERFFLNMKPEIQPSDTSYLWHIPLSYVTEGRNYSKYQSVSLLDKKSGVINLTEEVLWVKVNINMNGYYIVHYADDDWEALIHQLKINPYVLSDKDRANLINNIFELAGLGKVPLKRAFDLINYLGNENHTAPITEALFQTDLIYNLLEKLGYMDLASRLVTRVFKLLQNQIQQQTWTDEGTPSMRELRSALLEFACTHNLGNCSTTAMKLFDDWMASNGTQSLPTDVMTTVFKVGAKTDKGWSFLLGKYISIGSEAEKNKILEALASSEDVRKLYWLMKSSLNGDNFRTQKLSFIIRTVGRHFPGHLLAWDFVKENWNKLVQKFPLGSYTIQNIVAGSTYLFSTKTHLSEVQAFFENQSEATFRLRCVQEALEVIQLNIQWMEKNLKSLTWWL
T4 sequence (Q9UIQ6 155-1025 limits assumed): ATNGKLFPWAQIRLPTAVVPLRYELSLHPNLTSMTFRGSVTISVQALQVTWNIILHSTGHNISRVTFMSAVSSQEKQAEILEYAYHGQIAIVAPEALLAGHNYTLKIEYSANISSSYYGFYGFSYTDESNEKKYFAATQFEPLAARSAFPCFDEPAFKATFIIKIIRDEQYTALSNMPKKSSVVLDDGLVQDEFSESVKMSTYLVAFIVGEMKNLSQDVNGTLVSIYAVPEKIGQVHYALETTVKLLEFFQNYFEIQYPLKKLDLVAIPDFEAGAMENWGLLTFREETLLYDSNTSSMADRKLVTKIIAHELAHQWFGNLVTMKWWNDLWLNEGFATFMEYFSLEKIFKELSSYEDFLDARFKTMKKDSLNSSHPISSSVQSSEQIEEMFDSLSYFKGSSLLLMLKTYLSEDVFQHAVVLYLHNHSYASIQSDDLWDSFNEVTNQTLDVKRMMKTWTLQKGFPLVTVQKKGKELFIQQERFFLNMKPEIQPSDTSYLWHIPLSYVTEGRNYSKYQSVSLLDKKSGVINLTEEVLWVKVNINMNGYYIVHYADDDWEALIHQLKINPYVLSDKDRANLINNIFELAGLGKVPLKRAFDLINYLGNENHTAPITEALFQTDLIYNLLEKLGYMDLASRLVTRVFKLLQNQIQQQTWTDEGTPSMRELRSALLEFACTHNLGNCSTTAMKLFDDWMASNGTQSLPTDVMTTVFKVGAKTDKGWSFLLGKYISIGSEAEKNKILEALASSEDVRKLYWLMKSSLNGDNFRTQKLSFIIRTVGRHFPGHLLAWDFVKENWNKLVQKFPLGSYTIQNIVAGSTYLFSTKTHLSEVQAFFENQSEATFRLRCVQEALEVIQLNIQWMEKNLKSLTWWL

For `COc1ccccc1-c1nc(C2CCCN2C(=O)N[C@H](C)c2ccccc2)n2ccccc12` (mixture of isomers) [Compound 6b, 2-(1-(2-Methoxyphenyl)imidazo [1,5-a]pyridin-3-yl)-N-((R)-1-phenylethyl)pyrrolidine-1-carboxamide], the “APN IC50 (µM)/pIC50” value in data set [1] was “neither compound showed any inhibitory activity; also recorded: inactive (2)”. On human IRAP, the IC50 (commonly the midpoint of a concentration-inhibition curve) worked out at 50 µM.

On to `COc1ccccc1-c1nc(C2CCCN2C(=O)N[C@@H](C)c2ccccc2)n2ccccc12` (mixture of isomers) [Compound 6a, 2-(1-(2-Methoxyphenyl)imidazo [1,5-a]pyridin-3-yl)-N-((S)-1-phenylethyl)pyrrolidine-1-carboxamide], for which, at IRAP [2], the “mode of inhibition versus substrate” value is “non-competitive binding with the substrate”. In addition, in [1] (at concentrations up to 125 µM), the “impact on the activity of human APN” value is “no impact”. Besides, the “APN IC50 (µM)/pIC50” value in [1] is “neither compound showed any inhibitory activity; also recorded: inactive (2)”. Also, the “reversibility of binding to IRAP” value in the data set on IRAP [3] is given as “binds reversibly”. Further, the IC50 amounted to 1.3 µM at human IRAP and 1 µM in [4].

Consider `COc1ccccc1-c1nc(CN(C)C(=O)N[C@@H](C)c2ccccc2)n2ccccc12` [Compound 6m, (S)-1-((1-(2-Methoxyphenyl)imidazo [1,5-a]pyridin-3-yl)methyl)-1-methyl-3-(1-phenylethyl)urea], for which, in [5], the microsomal CLint was above 300 µL/min/mg and the half-life is below 2.3 min. Also, in [6], the solubility (commonly the concentration that dissolves in the medium under given conditions) was determined as 55 ± 12 µM (≈ 22.8 µg/mL). Moreover, in the data set “Human plasma stability”, the “Plasma Stab” value is 99 ± 5 % compound remaining. In data set [7], the hepatocyte CLint was above 300 µL/min/1e6 cells and the half-life was below 2.3 min. In addition, the logD (usually the decadic logarithm of the distribution of all forms, ionised or not, between an organic phase and buffer at a given pH) in [8] turned out to be 2.9 ± 0.6. Moreover, the fraction unbound in data set [9] stood at 0.006 ± 0.001.

On to `COc1ccccc1-c1nc(C2CCCN2C(=S)NCc2ccccc2)n2ccccc12` (stereo not drawn) [Compound 6v, N-Benzyl-2-(1-(2-methoxyphenyl)imidazo [1,5-a]pyridin-3-yl)pyrrolidine-1-carbothioamide], for which, in data set [5], the microsomal CLint was above 300 µL/min/mg and the half-life was below 2.3 min. Also, the solubility in data set [6] is 0.6 to 2 µM (≈ 0.266 to 0.885 µg/mL). Also, the “Plasma Stab” value in the data set “Human plasma stability” is recorded as 76 ± 6 % compound remaining. Moreover, in data set [7], the hepatocyte CLint is above 300 µL/min/1e6 cells and the half-life is below 2.3 min. The logD in data set [8] was 3.3 ± 0.4. Besides, the fraction unbound in data set [9] worked out at 0.007 ± 0.001.
